For one assay, the system named is WT mice. As to the kind of experiment: FeCl3-induced carotid arterial thrombosis. The class given is in vivo, mouse. As to the method: FIG. […]) is an exemplary embodiment of B12-5 having an antithrombotic effect without prolonging tail bleeding times in mice in accordance with the present disclosure. FIG. […]): Ex vivo effects of B12-5. Wild type (WT; […] One hour later, blood was drawn, followed by isolating platelets. P-selectin exposure (FIG. 19A) and αIIbβ3 integrin activation (FIG. 19B) were assessed in flow cytometry. FIG. 19C: Platelet aggregation was measured after treatment with 0.025 U/mL thrombin. The data represent the mean±SD (n=4). FIG. 19D: The plasma levels of B12-5 were analyzed by liquid chromatography-tandem mass spectrometry (LC-MS/MS) after intravenous injection of the compound (5 μg/g BW) into WT mice and quantified by comparison with a standard curve of B12-5 (mean±SD, n=3). FIG. 19E and FIG. 19F: After laser-induced cremaster arteriolar injury, intravital microscopy was conducted with WT mice pretreated with intravenous injection of saline, eptifibatide (5 μg/g BW), vehicle, or B12-5 (5 μg/g BW). The median integrated fluorescence intensities of anti-CD42c (F platelet) and anti-fibrin (F fibrin) antibodies (n=37-42 arterioles in 6 mice per group). Quantification of the antibody signal at a different time point after laser injury. FIG. 19G: Comparison of B12-5 (5 μg/g BW) with eptifibatide (5 μg/g BW) and their respective controls in inhibiting FeCl3-induced carotid artery thrombosis in WT mice. FIG. 19H and FIG. 19I: WT mice were treated with intravenous injection of vehicle control, eptifibatide (5 μg/g BW), or B12-5 (5 μg/g BW). Thirty minutes later, tail bleeding times and Hb contents were measured after amputation of the tail tip. […] Twenty-three hours later, neurological deficits were assessed by the Bederson score and grip test, and infarct volume was measured as described in Methods. […] Twenty-three hours later, the neurological deficit and infarct volume were measured as described above. […] P values determined by unpaired Student t test (FIG. […]), FIG. 19K, and FIG. 19O) or Mann-Whitney U test (FIG. 19(E-1), FIG. 19L, FIG. 19M, FIG. 19P, and FIG. 19Q). […]

The test system of another assay is WT (C57BL/6) mice. As to the kind of experiment: Intravital microscopy, laser-induced cremaster arteriolar injury, WT mice. Particulars: iv 5 μg/g BW. In kind it is in vivo, mouse. Here is the method:
Intravital microscopy was performed in a mouse model of laser-induced cremaster arteriolar injury as previously described. WT (C57BL/6), littermate WT control, and CKO and KO male mice (8-10 weeks old) were anesthetized with intraperitoneal injection of ketamine and xylazine. The cremaster muscle was exteriorized and superfused with 37° C. bicarbonate-buffered saline throughout the experiment. Arteriolar wall injury was induced by laser ablation (Photonics Instruments) as previously described. Multiple thrombi were generated in at least 3 to 4 different arterioles of 1 mouse, with new thrombi formed upstream of earlier thrombi to minimize any contribution from thrombi generated earlier in the mouse. Platelets and fibrin were visualized by infusion of DyLight 649-conjugated anti-CD42c (0.2 μg/g body weight [BW]) and Alexa Fluor 488-conjugated anti-fibrin (0.2 μg/g BW) antibodies, respectively. To detect extracellular Ero1α, Alexa Fluor 488-conjugated rabbit IgG or nonblocking anti-ERO1α antibodies (0.3 μg/g BW) were injected into WT (C57BL/6), WT control, Ero1α KO, and Ero1α CKO mice. In some experiments, wtERO1α or activity-null ERO1α-Cys94Ser (mutant ERO1α [mERO1α]; 4 μg/g BW) was infused into Ero1α KO mice before imaging. To test the effect of ERO1α inhibitors or blocking anti-ERO1α antibodies, WT (C57BL/6) mice were treated with intravenous injection of vehicle control, eptifibatide (5 μg/g BW), B12-5 (5 μg/g BW), isotype control IgGs, anti-ERO1α (15E9, 1-3 μg/g BW), or anti-PDI (BD34, 3 μg/g BW) 3 minutes before treatment with the anti-CD42c and anti-fibrin antibodies. The same dose of eptifibatide was injected every 20 minutes to maintain the inhibitory effect. […] Fluorescence and bright-field images were captured in 6 to 10 different cremaster arterioles with a diameter of 30 to 45 μm in each mouse and recorded using either an Olympus BX61W microscope with a 60×1.0 salt water immersion objective or a Zeiss Axio Examiner Z1 microscope system with a Yokogawa confocal spinning disk (CSU-W1) equipped with 4 stack laser system (405-, 488-, 561-, and 637-nm wavelengths). Images were collected with a high-speed, high-resolution camera (2304×2304 pixel format; ORCA-Fusion BT sCMOS, Hamamatsu). Time 0 was set to when image capture began on each vessel. The data were analyzed using Slidebook (version 6.0; Intelligent Imaging Innovations). Due to the significant variation between vessels in the same mouse, the result from each vessel was counted as an individual value. Representative images were chosen that most closely resemble the mean values in the quantifications.

Entries after “also recorded” stand apart in the source; their conditions may differ.

In the case of `O=C(CSc1nc(O)cc(O)n1)N1c2ccccc2Sc2ccccc21` [B12-5], the time to occlusion entry in the assay on WT mice (5 μg/g BW, vs vehicle control) was “significantly prolonged”. In addition, the platelet thrombus formation entry is “significantly reduced” in the assay on WT mice (iv 5 microg/g mouse), “significantly inhibited; also recorded: significantly reduced” in the assay on WT (C57BL/6) mice and “inhibit” in the assay on WT (C57BL/6) mice (listed as B112-5).

The values above are taken from patent publication US20240366624A1, “METHODS AND COMPOSITIONS FOR TREATING THROMBOTIC DISEASE” (Washington University, priority 2023, published 2024).
